{"source": "patent US8785393B2", "about": "“Ophthalmic pharmaceutical compositions of DP2 receptor antagonists” (Panmira Pharmaceuticals, LLC, priority 2009, dated 2014)", "key": {"[1]": {"tested_on": "guinea pig model of allergic conjunctivitis", "experiment": "Guinea pig model of allergic conjunctivitis (ovalbumin)", "format": "in vivo, Hartley Guinea pigs", "description": "A guinea pig model of allergic conjunctivitis is used to test the effect of topical administration of a DP2 receptor antagonist to the eye on the development of allergic conjunctivitis. Male Hartley Guinea pigs ages 4-8 weeks (300-500 grams) at the beginning of the experiment were sensitized by intraperitoneal injection of ovalbumin [0.5 ml of a 100 μg/ml solution in Imject Alum. An additional 0.5 ml of the ovalbumin (OVA) solution is injected subcutaneous in the proximity of the lymph nodes (Muise et al., 2002). Twenty one days after sensitization, guinea pigs received an ocular challenge. Briefly, animals were secured within a towel and placed in a lateral recumbent position. Ten microliters of saline or OVA (2.5% in Saline) was topically applied to each eye, followed by 2-3 manually forced blinks. This procedure is repeated again on day 23. Clinical scoring of redness (using a scale of 0-3), edema (using a scale of 0-3) and discharge (using a scale of 0-4) were evaluated 90 minutes after challenge on day 23. The itch/scratch response was observed and recorded (using a scale of 0-3) for the first 30 minutes after challenge on day 23. The DP2 receptor antagonist (compound 2; {2′-[(N-cyclopropanecarbonyl-N-ethyl-amino)-methyl]-6-methoxy-4′-trifluoromethyl-biphenyl-3-yl}-acetic acid) was administered on days 21-23 by topical application using the procedure described above in a concentration of 300 ng/eye in PBS vehicle. Oral administration was also evaluated by gavage of compound 2 (10 mg/kg) prepared in 0.5% Methylcellulose or water. The means±standard error of the mean were plotted and analyzed by one-way ANOVA using Graphpad Prizm."}, "[2]": {"tested_on": "mouse model of ragweed-induced allergic conjunctivitis", "experiment": "Mouse ragweed allergic conjunctivitis", "format": "in vivo", "details": "topical 0.3% in PBS, three times daily, days 9-15, FIG. 5", "description": "A mouse model of ragweed-induced allergic conjunctivitis was used to test the efficacy of topical administration of a DP2 receptor antagonist to the eye on the development of allergic conjunctivitis. Compound 2 was evaluated in a mouse model of ocular allergy. In this model, a systemic sensitization with an allergen (Short Ragweed, SRW) was followed by topical challenge with the same allergen. For sensitization a suspension of 50 μg of short ragweed allergen (SRW, Greer, Lenoir, NC, USA) 25 μl of Aluminum Hydroxide (13 mg/ml, Sigma Aldrich) was injected into both hind rear footpads (Day 0). On days 9 through 15, topical treatment with compound 2 (0.3% in PBS), positive control (Prednisolone Acetate 1% in hypromellose), or vehicle control (PBS) was administered three times daily. Mice were dosed topically to the central cornea using a calibrated micropipette, with a 5 μL drop of treatment in each eye. On days 13 through 15 mice were challenged with topical doses of 1000 μg SRW suspension in 5 μl PBS in each eye. SRW was prepared fresh daily, and used within 3 hours of mixing, and mixed well before administration to ensure homogeneity. Thirty minutes after the final challenge (Day 15) clinical signs (discharge, lid swelling hyperemia, chemosis, and squinting) were evaluated using the aid of a dissecting microscope. A cumulative score was also recorded including all parameters measured with the exception of squinting."}, "[3]": {"tested_on": "respiratory syncytial virus (RSV) eye infection", "format": "in vivo", "details": "topical 60 ng/eye once daily, 14 days", "experimental": "A mouse model of respiratory syncytial virus (RSV) eye infection is used to test the effects of ocular application of DP2 receptor antagonist compound on RSV-induced ocular immunopathology (Bitko V, et al., J. Virol. 2007; 81(2):783-90; Bitko V, et al., Nat. Med. 2005; 11(1):50-5). Each mouse eye is topically treated with 60 ng DP2 receptor antagonist compound or vehicle (sterile saline) in a volume of 2 μl. The DP2 receptor antagonist compound is instilled 40 min after virus inoculum and then once daily over the entire duration of the protocol (14 days).\nInstillation of virus and inhibitor in the eye. Female BALB/c mice, 6 to 8 weeks old, are purchased from Charles River Laboratories. […]\nOcular pathology. Ocular disease is evaluated with a slit lamp biomicroscope (Bitko V, et al., J. Virol. 2007; 81(2):783-90)15; Girgis et al., Invest. […] Pathology is scored on a scale of 0 to 5 as follows: 0=clear eye; 1=slight redness in the corners; 2=moderate redness and injection; 3=conjunctival and corneal injection with ciliary flush; 4=extensive injection, generally associated with some mucus; 5=most extensive injection, associated with mucus. Eyes are examined in a coded fashion with the reader unaware of the treatment given. The presence of gummy residue or mucin in the eyes is recorded. […]"}, "[4]": {"details": "topical 300 ng/eye in PBS, days 21-23, scored 90 minutes after challenge on day 23, FIG. 3"}, "[5]": {"details": "scored 30 min after final challenge (Day 15)"}}}
{"compound": "CCN(Cc1cc(C(F)(F)F)ccc1-c1cc(CC(=O)O)ccc1OC)C(=O)C1CC1", "note": "[compound 2, {2′-[(N-cyclopropanecarbonyl-N-ethyl-amino)-methyl]-6-methoxy-4′-trifluoromethyl-biphenyl-3-yl}-acetic acid]", "values": [{"measurement": "any endpoint (redness, edema, discharge, itch/scratch, clinical score)", "setting": "[1]; oral gavage 10 mg/kg", "result": "failed to impact any endpoint"}, {"measurement": "cummulative clinical score", "setting": "[1]; topical 300 ng/eye in PBS, days 21-23, after ocular antigen challenge, FIG. 3", "result": "significantly reduced"}, {"measurement": "itch/scratch response", "setting": "[1]; topical 300 ng/eye in PBS, days 21-23, first 30 minutes after challenge on day 23, FIG. 3", "result": "trend toward reduction"}, {"measurement": "Ocular edema", "setting": "[1]; [4]", "result": "trend toward reduction"}, {"measurement": "discharge", "setting": "[1]; [4]", "result": "significantly reduced"}, {"measurement": "redness", "setting": "[1]; [4]", "result": "significantly reduced"}, {"measurement": "cumulative clinical score", "setting": "[2]; all parameters except squinting", "result": "significantly reduced"}, {"measurement": "chemosis", "setting": "[2]; [5]", "result": "significantly reduced"}, {"measurement": "discharge", "setting": "[2]; [5]", "result": "significantly reduced"}, {"measurement": "lid swelling", "setting": "[2]; [5]", "result": "significantly reduced"}, {"measurement": "RSV eye pathology", "setting": "[3]; FIG. 4 (A)", "result": "reduced"}, {"measurement": "eye IL4 induction", "setting": "[3]; FIG. 4 (B)", "result": "reduced"}]}
